Drawing on patent US8076338B2, “Kinase modulators and methods of use” (Exelixis, Inc., priority 2004, dated 2011), this text covers IC50 for 28 compounds.

Like-named read-outs stand apart in the source and are kept apart here. Bounds are passed on as bounds.

For orientation: IC50 means the concentration needed to halve the response being measured.

One assay addresses AktK (Homo sapiens, UniProt P31749). Kind of assay: Luciferase-coupled chemiluminescence kinase assay (ATP consumption). Type of assay: biochemical. As to conditions: read-out: AKT-1 IC50. How it is done:
(§1) One measure of inhibition is Ki. […] The Ki for a compound is determined from the IC50 based on three assumptions. First, only one compound molecule binds to the enzyme and there is no cooperativity. […] Third, the enzymatic rate of the enzyme-inhibitor complex is zero. The rate data (i.e. compound concentration) are fitted to the equation: […]
(§2) Luciferase-Coupled Chemiluminescence Assay Protocol
(§3) Kinase activity is measured as the percent of ATP consumed following the kinase reaction using luciferase-luciferin-coupled chemiluminescence. Reactions were conducted in 384-well white, medium binding microtiter plates (Greiner). Kinase reactions were initiated by combining test compounds, ATP and kinase in a 20 uL volume. The reaction mixture was incubated at ambient temperature for 3 hrs. For p70S6K and/or AktK, 2.5-5 nM of the enzyme was pre-incubated with compound in 20 mM Tris pH 7.5, 10 mM MgCl2, 0.03% TX-100, and 1 mM DTT for 30 minutes at room temperature. Following the kinase reaction, a 20 μL aliquot of luciferase-luciferin mix was added and the chemiluminescence signal measured using a Victor^2 plate reader (Perkin Elmer). The luciferase-luciferin mix contained 50 mM HEPES, pH 7.8, 67 mM oxalic acid (pH 7.8), 5 (or 50) mM DTT, 0.4% Triton X-100, 0.25 mg/mL coenzyme A, 63 μM AMP, 28 μg/1 mL luciferin and 40,000 units/mL luciferase. Total ATP consumption was limited to 25-60% and the IC50 values correlate well with those determined by radiometric assays.

The next assay deals with p70S6K (Homo sapiens, UniProt P23443). Described as above. Type of assay: biochemical. As to the method:
as §1, §2, §3

AktK, sequence (P31749 whole entry): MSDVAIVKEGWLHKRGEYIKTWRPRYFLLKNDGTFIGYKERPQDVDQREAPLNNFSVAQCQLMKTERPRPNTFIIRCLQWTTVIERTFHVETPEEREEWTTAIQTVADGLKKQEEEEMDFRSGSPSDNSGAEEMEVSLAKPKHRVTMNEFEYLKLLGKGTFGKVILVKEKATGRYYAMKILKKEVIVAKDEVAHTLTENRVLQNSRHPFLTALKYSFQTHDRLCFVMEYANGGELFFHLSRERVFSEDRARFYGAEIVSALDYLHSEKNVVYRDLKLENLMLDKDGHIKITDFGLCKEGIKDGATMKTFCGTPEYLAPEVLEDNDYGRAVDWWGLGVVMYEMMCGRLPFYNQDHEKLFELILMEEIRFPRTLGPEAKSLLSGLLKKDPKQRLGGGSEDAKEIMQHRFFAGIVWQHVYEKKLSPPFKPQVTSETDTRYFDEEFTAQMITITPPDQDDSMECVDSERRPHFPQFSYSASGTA
p70S6K, sequence (P23443 whole entry): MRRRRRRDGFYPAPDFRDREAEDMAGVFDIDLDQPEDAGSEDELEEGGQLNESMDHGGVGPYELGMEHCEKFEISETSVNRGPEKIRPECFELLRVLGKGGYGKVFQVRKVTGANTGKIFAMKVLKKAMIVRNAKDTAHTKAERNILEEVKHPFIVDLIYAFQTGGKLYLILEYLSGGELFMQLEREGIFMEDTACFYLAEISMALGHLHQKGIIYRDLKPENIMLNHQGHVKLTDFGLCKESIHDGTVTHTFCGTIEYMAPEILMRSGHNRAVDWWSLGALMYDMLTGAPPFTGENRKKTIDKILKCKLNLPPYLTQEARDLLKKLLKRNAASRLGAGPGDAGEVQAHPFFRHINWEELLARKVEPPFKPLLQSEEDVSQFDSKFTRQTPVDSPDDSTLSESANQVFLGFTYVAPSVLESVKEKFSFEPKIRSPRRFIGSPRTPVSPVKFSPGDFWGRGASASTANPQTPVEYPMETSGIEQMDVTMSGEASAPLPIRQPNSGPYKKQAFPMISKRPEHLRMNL

As for `Cc1c(NCCN2CCCC2)cc(OCCC(C)C)cc1N1CCN(c2ncnc3[nH]nc(Br)c23)CC1` [Entry 206, 3-[4-(3-bromo-1H-pyrazolo[3,4-d]pyrimidin-4-yl)piperazin-1-yl]-2-methyl-5-[(3-methylbutyl)oxy]-N-(2-pyrrolidin-1-ylethyl)aniline], the IC50 on AktK (Table 1, class symbols per key) is less than 0.1 µM; at p70S6K (Table 1, class symbols per key), less than 0.1 µM.
Consider “3-[4-(3-bromo-1H-pyrazolo[3,4-d]pyrimidin-4-yl)piperazin-1-yl]-5-(butyloxy)-2-methyl-N-(2-pyrrolidin-1-ylethyl)aniline [Entry 208]”, for which the half-maximal inhibitory concentration (IC50) was less than 0.1 µM on AktK (Table 1, class symbols per key) and less than 0.1 µM on p70S6K (Table 1, class symbols per key).
`Cc1c(NCCN2CCCC2)cc(C(=O)N2CCCC2)cc1N1CCN(c2ncnc3[nH]nc(Br)c23)CC1` [Entry 201, 3-[4-(3-bromo-1H-pyrazolo[3,4-d]pyrimidin-4-yl)piperazin-1-yl]-2-methyl-5-(pyrrolidin-1-ylcarbonyl)-N-(2-pyrrolidin-1-ylethyl)aniline]: the IC50 at AktK (Table 1, class symbols per key) was 0.1 to 1 µM; against p70S6K (Table 1, class symbols per key), less than 0.1 µM.
In the case of `N#Cc1cccnc1N1CCN(c2ncnc3[nH]nc(Br)c23)CC1` [Entry 127, 2-[4-(3-bromo-1H-pyrazolo[3,4-d]pyrimidin-4-yl)piperazin-1-yl]pyridine-3-carbonitrile], the IC50 on AktK (Table 1, class symbols per key) is not below 10 µM; on p70S6K (Table 1, class symbols per key), 0.1 to 1 µM.
In the case of `CCc1n[nH]c2ncnc(N3CCN(c4cc(Cl)c(OCCN(C)C)cc4C)CC3)c12` [Entry 389, 2-({2-chloro-4-[4-(3-ethyl-1H-pyrazolo[3,4-d]pyrimidin-4-yl)piperazin-1-yl]-5-methylphenyl}oxy)-N,N-dimethylethanamine], the results for the IC50 at AktK and against p70S6K were 1 to 10 µM and 0.1 to 1 µM, respectively.
For the compound `Cc1c(NCCN2CCCC2)cc(-c2nc(-c3ccccc3)no2)cc1N1CCN(c2ncnc3[nH]nc(Br)c23)CC1` [Entry 241, 3-[4-(3-bromo-1H-pyrazolo[3,4-d]pyrimidin-4-yl)piperazin-1-yl]-2-methyl-5-(3-phenyl-1,2,4-oxadiazol-5-yl)-N-(2-pyrrolidin-1-ylethyl)aniline], the IC50 at AktK (Table 1, class symbols per key) was 1 to 10 µM; on p70S6K (Table 1, class symbols per key) it was less than 0.1 µM.
With `Cc1ccc(Cl)cc1N1CCN(c2ncnc3[nH]nc(-c4ccc5c(c4)OCO5)c23)CC1` [Entry 337, 3-(1,3-benzodioxol-5-yl)-4-[4-(5-chloro-2-methyl-phenyl)piperazin-1-yl]-1H-pyrazolo[3,4-d]pyrimidine], the IC50 at AktK lay within 1 to 10 µM; against p70S6K it was 0.1 to 1 µM.
In the case of `COc1ccc(N2CCN(c3ncnc4[nH]nc(Br)c34)CC2)c(OC)c1` [Entry 106, 4-{4-[2,4-bis(methyloxy)phenyl]piperazin-1-yl}-3-bromo-1H-pyrazolo[3,4-d]pyrimidine], the IC50 on AktK (Table 1, class symbols per key) is not below 10 µM; on p70S6K (Table 1, class symbols per key) it was 0.1 to 1 µM.
The matching figures for `CCCC(=O)c1cc(NCCN2CCCC2)cc(N2CCN(c3ncnc4[nH]nc(Br)c34)CC2)c1` [Entry 283, 1-{3-[4-(3-bromo-1H-pyrazolo[3,4-d]pyrimidin-4-yl)piperazin-1-yl]-5-[(2-pyrrolidin-1-ylethyl)amino]phenyl}butan-1-one]: less than 0.1 µM and less than 0.1 µM.
The matching figures for `CCN(CC)CCOc1cccc(N2CCN(c3ncnc4[nH]nc(Br)c34)CC2)c1` [Entry 189, 2-({3-[4-(3-bromo-1H-pyrazolo[3,4-d]pyrimidin-4-yl)piperazin-1-yl]phenyl}oxy)-N,N-diethylethanamine]: not below 10 µM and 0.1 to 1 µM.
In the same order, the values of `Brc1cc(NCCN2CCCC2)cc(N2CCN(c3ncnc4[nH]nc(Br)c34)CC2)c1` [Entry 265, 3-bromo-5-[4-(3-bromo-1H-pyrazolo[3,4-d]pyrimi-din-4-yl)piperazin-1-yl]-N-(2-pyrrolidin-1-ylethyl)aniline] are less than 0.1 µM and less than 0.1 µM.
Take `Brc1n[nH]c2ncnc(N3CCN(c4ccccn4)CC3)c12` [Entry 63, 3-bromo-4-(4-pyridin-2-ylpiperazin-1-yl)-1H-pyrazolo[3,4-d]pyrimidine]: the IC50 on AktK (Table 1, class symbols per key) lay within 1 to 10 µM; at p70S6K (Table 1, class symbols per key), 0.1 to 1 µM.
For `Clc1cccc(N2CCN(c3ncnc4[nH]ccc34)CC2)c1` [Entry 296, 4-[4-(3-chlorophenyl)piperazin-1-yl]-7H-pyrrolo[2,3-d]pyrimidine], the IC50 lay within 1 to 10 µM on AktK and 0.1 to 1 µM at p70S6K.
Take `CCc1ccccc1N1CCN(c2ncnc3[nH]nc(Br)c23)CC1` [Entry 105, 3-bromo-4-[4-(2-ethylphenyl)piperazin-1-yl]-1H-pyrazolo[3,4-d]pyrimidine]: the concentration for half-maximal inhibition (IC50) at AktK (Table 1, class symbols per key) was not below 10 µM; at p70S6K (Table 1, class symbols per key), 0.1 to 1 µM.
In the same order, the values of `CCNC(=O)c1cc(NCCN2CCCC2)c(C)c(N2CCN(c3ncnc4[nH]nc(Br)c34)CC2)c1` [Entry 219, 3-[4-(3-bromo-1H-pyrazolo[3,4-d]pyrimidin-4-yl)piperazin-1-yl]-N-ethyl-4-methyl-5-[(2-pyrrolidin-1-ylethyl)amino]benzamide] are less than 0.1 µM and less than 0.1 µM.
Regarding `Clc1ccc(N2CCN(c3ncnc4[nH]nc(Br)c34)CC2)cc1` [Entry 154, 3-bromo-4-[4-(4-chlorophenyl)piperazin-1-yl]-1H-pyrazolo[3,4-d]pyrimidine], the 50% inhibitory concentration (IC50) at AktK (Table 1, class symbols per key) was not below 10 µM; at p70S6K (Table 1, class symbols per key), 0.1 to 1 µM.
The matching figures for `CCc1n[nH]c2ncnc(N3CCN(c4cccc(OC)c4)CC3)c12` [Entry 99, 3-ethyl-4-{4-[3-(methyloxy)phenyl]piperazin-1-yl}-1H-pyrazolo[3,4-d]pyrimidine]: not below 10 µM and 0.1 to 1 µM.
The matching figures for `CCN1CCN(CCCOc2cc(Cl)cc(N3CCN(c4ncnc5[nH]nc(Br)c45)CC3)c2C)CC1` [Entry 86, 3-bromo-4-[4-(5-chloro-3-{[3-(4-ethylpiperazin-1-yl)propyl]oxy}-2-methylphenyl)piperazin-1-yl]-1H-pyrazolo[3,4-d]pyrimidine]: less than 0.1 µM and less than 0.1 µM.
Regarding `COc1ccccc1N1CCN(c2ncnc3[nH]ccc23)CC1` [Entry 302, 4-{4-[2-(methyloxy)phenyl]piperazin-1-yl}-7H-pyrrolo[2,3-d]pyrimidine], the IC50 is not below 10 µM on AktK and 0.1 to 1 µM against p70S6K.
Take `COc1cccc(N2CCN(c3ncnc4[nH]ccc34)CC2)c1` [Entry 303, 4-{4-[3-(methyloxy)phenyl]piperazin-1-yl}-7H-pyrrolo[2,3-d]pyrimidine]: the half-inhibitory concentration (IC50) on AktK was not below 10 µM; at p70S6K, 0.1 to 1 µM.
In the case of `COc1nccnc1N1CCN(c2ncnc3[nH]nc(Br)c23)CC1` [Entry 133, 3-bromo-4-{4-[3-(methyloxy)pyrazin-2-yl]pipera-zin-1-yl}-1H-pyrazolo[3,4-d]pyrimidine], the IC50 at AktK (Table 1, class symbols per key) was not below 10 µM; at p70S6K (Table 1, class symbols per key), 0.1 to 1 µM.
The matching figures for `O=C(COc1cccc(N2CCN(c3ncnc4[nH]nc(Br)c34)CC2)c1)NC1CC1` [Entry 166, 2-({3-[4-(3-bromo-1H-pyrazolo[3,4-d]pyrimidin-4-yl)piperazin-1-yl]phenyl}oxy)-N-cyclopropylacetamide]: 1 to 10 µM and less than 0.1 µM.
For `Cc1c(NCCN2CCCC2)cc(-c2ccccc2)cc1N1CCN(c2ncnc3[nH]nc(Br)c23)CC1` [Entry 231, 5-[4-(3-bromo-1H-pyrazolo[3,4-d]pyrimidin-4-yl)piperazin-1-yl]-4-methyl-N-(2-pyrrolidin-1-ylethyl)biphenyl-3-amine], the IC50 at AktK (Table 1, class symbols per key) is less than 0.1 µM; against p70S6K (Table 1, class symbols per key) it was less than 0.1 µM.
Turning to `Cc1ccc(C(=O)Nc2ccccc2)cc1N1CCN(c2ncnc3[nH]nc(Br)c23)C[C@@H]1CO` [Entry 200, 3-[(2R)-4-(3-bromo-1H-pyrazolo[3,4-d]pyrimidin-4-yl)-2-(hydroxymethyl)piperazin-1-yl]-4-methyl-N-phenylbenzamide], the IC50 is less than 0.1 µM at AktK (Table 1, class symbols per key) and less than 0.1 µM at p70S6K (Table 1, class symbols per key).
For the compound `Brc1n[nH]c2ncnc(N3CCN(c4ncccn4)CC3)c12` [Entry 108, 3-bromo-4-(4-pyrimidin-2-ylpiperazin-1-yl)-1H-pyrazolo[3,4-d]pyrimidine], the IC50 at AktK (Table 1, class symbols per key) was not below 10 µM; against p70S6K (Table 1, class symbols per key), 0.1 to 1 µM.
In the same order, the values of `O=C1COc2ccc(-c3ccnc(N4CCN(c5ncnc6[nH]nc(Br)c56)CC4)n3)cc2N1` [Entry 144, 6-{2-[4-(3-bromo-1H-pyrazolo[3,4-d]pyrimidin-4-yl)piperazin-1-yl]pyrimidin-4-yl}-2H-1,4-benzoxazin-3(4H)-one] are 1 to 10 µM and 1 to 10 µM.
The matching figures for `FC(F)(F)c1cccc(N2CCN(c3ncnc4[nH]nc(Br)c34)CC2)c1` [Entry 155, 3-bromo-4-{4-[3-(trifluoromethyl)phenyl]piperazin-1-yl}-1H-pyrazolo[3,4-d]pyrimidine]: not below 10 µM and less than 0.1 µM.
As to `COc1ccccc1N1CCN(c2ncnc3[nH]cnc23)CC1` [Entry 307, 6-{4-[2-(methyloxy)phenyl]piperazin-1-yl}-9H-purine], the values for the IC50 on AktK and against p70S6K were not below 10 µM and 0.1 to 1 µM, respectively.
